Results taken from a melting point compilation (Tetko et al.; mined from patent text by program, amines drawn as free bases though some values may be those of a salt).

Which melting point does the source give for `CCC(O)(CC)c1ccc(-c2ccc(OCc3ccc(CO)c(CO)c3)cc2)c(C)c1` here?
Its melting point is 97 °C.

Which melting point does the source give for `Cc1cc(N)c2c(c1Cl)CC(C)O2` (configuration not stated) here?
The melting point was 157 to 160 °C.

With `Cc1nnc(Cl)c(-c2c(F)cccc2Cl)c1-c1ccc(Cl)nc1` as the compound, how does the melting point read?
The melting point was 166 to 167 °C.

For `O=C(O)C(=O)CC(=O)c1cccn1Cc1cc(F)c(F)cc1F`, which melting point is on record?
The melting point was 154 to 156 °C.

Which melting point does the source give for `CSc1cc(Oc2cccc(C(F)(F)F)c2)nc(C(=O)Nc2ccccc2)c1` here?
Its melting point is 115 to 119 °C.

For `COc1ccc(NC(=S)C(N)=O)cc1OC`, which melting point is on record?
The melting point was 149 to 151 °C.

Which melting point does the source give for `COC1(c2ccc(Sc3ccc4c(c3)OCC(=O)N4C)s2)CCOCC1` here?
Its melting point is 65 to 69 °C.

With `CC1(C)C2CCC1(CCBr)CC2` as the compound, how does the melting point read?
Its melting point is 68 to 71 °C.

For `CCCCCCCCCCCCCCCCOc1ccc(-c2nc(CC(=O)O)c(Oc3ccc(Cl)cc3)o2)cc1`, which melting point is on record?
Its melting point is 76 to 77 °C.

For `CCn1cc(Cl)c2cnc(NC(=O)c3ccc([C@](C)(O)CO)cc3)cc21`, which melting point is on record?
Its melting point is 223 to 224 °C.

With `CN(C)Cc1ccc(-c2cccc(-c3ccnc4c(C(=O)c5cccs5)cnn34)c2)cc1` as the compound, how does the melting point read?
Its melting point is 192 to 195 °C.

With `Nc1ccnn1-c1c(F)cc(C(F)(F)F)cc1Cl` as the compound, how does the melting point read?
Its melting point is 87 to 90 °C.

For `Oc1ccc(C2CC(c3ccc(O)cc3)C2)cc1` (configuration not stated), which melting point is on record?
Its melting point is 148 to 164 °C.

Which melting point does the source give for `CNCC(O)c1cccn1C` (configuration not stated) here?
The melting point was 64 to 66 °C.

For `COc1cc2c(cc1OC)C(CCCl)OCC2` (configuration not stated), which melting point is on record?
Its melting point is 161 to 163 °C.

For `COC(=O)C1=CC(C)(C#N)N(c2cccc(Cl)c2Cl)N1` (configuration not stated), which melting point is on record?
Its melting point is 66 to 67 °C.

For `COC(=O)C1CCN(S(=O)(=O)c2ccc(Cl)c(COc3cccc4c(-n5ccnc5)cc(C)nc34)c2Cl)C1` (configuration not stated), which melting point is on record?
Its melting point is 180 °C.

Which melting point does the source give for `COc1ccccc1CN[C@H]1CCCN(CCCCCC(=O)O)[C@H]1c1ccccc1` (relative stereo) here?
The melting point was 53 to 65 °C.

For `O=C(O)COc1cc(F)ccc1C(=O)NCc1nc2c(F)c(F)cc(F)c2s1`, which melting point is on record?
Its melting point is 172 to 174 °C.

With `COc1cc2c(cc1O)CCN(Cc1cccc(C)c1)C2` as the compound, how does the melting point read?
The melting point was 128 to 129 °C.

With `CC(=O)N1CCC(=O)C(C(c2ccccc2)c2ccccc2)C1` (configuration not stated) as the compound, how does the melting point read?
The melting point was 133 to 136 °C.

For `COc1ccc2cc([C@H](C)C(=O)OCC(CO)(CO)[N+](=O)[O-])ccc2c1`, which melting point is on record?
The melting point was 124 to 126 °C.
